Test system: SD rats (type 2 diabetes model)
Experiment: Urine glucose excretion in streptozotocin/high-fat high-sucrose diet type 2 diabetes model rats, glucose-oxidase method
Assay type: in vivo, rat
Settings: 6 mg/kg intragastric, glucose 2 g/kg at 0.5 h, urine collected 0-12 h
Experimental: The health SD rats are injected intraperitoneally with multiple low doses of streptozotocin for modeling (type 2 diabetes model) after feeding with high-fat and high-sucrose diet, and the content of blood glucose is measured before and after modeling. After the modeling successful, the rats for modeling are randomly divided (8 rats/group) into one blank group (administering the same volume of 0.5% CMC sodium solution) and several groups for compounds to be tested (6 mg/kg) according to the content of 24-hour urine glucose and the body weight. Rats in each group are fasted for 16 hours before experiment. The experimental rats are administered intragastrically with glucose (2 g/kg) at 0.5 h after intragastrical administration with compounds to be tested. The urine is collected at the time-period of 0-12 h after administration, and the urine glucose values are measured at each time-period by glucose-oxidase method. […]

SMILES | Urine glucose excretion
COc1ccc(Oc2cc(C3OC(C)C(O)C(O)C3O)ccc2Cl)cc1 (stereo not shown) | 457 mg/200 g body weight of the rat
C=C1OC(c2ccc(Cl)c(Cc3ccc(OC)cc3)c2)C(O)C(O)C1O (stereo not shown) | 410 mg/200 g body weight of the rat
CCc1ccc(Cc2cc(C3OC(CO)C(O)CC3O)ccc2C)cc1 (stereo not shown) | 230 mg/200 g body weight of the rat
CCOc1ccc(Cc2cc(C3OC(C)(C)C(O)C(O)C3O)ccc2Cl)cc1 (stereo not shown) | 470 mg/200 g body weight of the rat
CCc1ccc(Cc2c(Cl)ccc3c2COC32OC(CO)C(O)C(O)C2O)cc1 (stereo not shown) [drawing 258] | 755 mg/200 g body weight of the rat
COc1ccc(Cc2cc(C3OC(CO)CC(O)C3O)ccc2Cl)cc1 (stereo not shown) | 310 mg/200 g body weight of the rat
CCOc1ccc(Cc2cc(C3OC(C)C(O)C(O)C3O)ccc2C)cc1 (stereo not shown) [drawing 219] | 700 mg/200 g body weight of the rat
CCOc1ccc(Cc2cc(C3OC(CO)CC(O)C3O)ccc2Cl)cc1 (stereo not shown) [drawing 229] | 880 mg/200 g body weight of the rat
CCOc1ccc(Cc2cc(C3CCC(O)C(CO)S3)c(OC)cc2C)cc1 (stereo not shown) [drawing 266] | 730 mg/200 g body weight of the rat

Same assay, conditions: compared with analogues or non-deoxy compounds

SMILES | urine glucose excretion effect (comparison in words)
CCOc1ccc(Cc2cc([C@@H]3O[C@H](CO)C[C@H](O)[C@H]3O)ccc2Cl)cc1 [I-D1-4, (1S)-1-[4-chloro-3-(4-ethoxybenzyl)phenyl]-1,4-dideoxy-D-glucose] | stronger urine glucose excretion effect
CCOc1ccc(Cc2cc([C@@H]3O[C@H](CO)[C@@H](O)C[C@H]3O)ccc2Cl)cc1 [I-D1-3, (1S)-1-[4-chloro-3-(4-ethoxybenzyl)phenyl]-1,3-dideoxy-D-glucose] | stronger urine glucose excretion effect
CCOc1ccc(Cc2cc([C@@H]3C[C@@H](O)[C@H](O)[C@@H](CO)O3)ccc2Cl)cc1 [I-D1-2, (1S)-1-[4-chloro-3-(4-ethoxybenzyl)phenyl]-1,2-dideoxy-D-glucose] | stronger urine glucose excretion effect

Biological target: hSGLT2 (Homo sapiens (Human), UniProt P31639)
Experiment: IC50 of inhibition on SGLT2 (method of Meng et al., J. Med. Chem. 2008)
Assay type: cell-based
Settings: not given

Chain of hSGLT2 (P31639 whole entry): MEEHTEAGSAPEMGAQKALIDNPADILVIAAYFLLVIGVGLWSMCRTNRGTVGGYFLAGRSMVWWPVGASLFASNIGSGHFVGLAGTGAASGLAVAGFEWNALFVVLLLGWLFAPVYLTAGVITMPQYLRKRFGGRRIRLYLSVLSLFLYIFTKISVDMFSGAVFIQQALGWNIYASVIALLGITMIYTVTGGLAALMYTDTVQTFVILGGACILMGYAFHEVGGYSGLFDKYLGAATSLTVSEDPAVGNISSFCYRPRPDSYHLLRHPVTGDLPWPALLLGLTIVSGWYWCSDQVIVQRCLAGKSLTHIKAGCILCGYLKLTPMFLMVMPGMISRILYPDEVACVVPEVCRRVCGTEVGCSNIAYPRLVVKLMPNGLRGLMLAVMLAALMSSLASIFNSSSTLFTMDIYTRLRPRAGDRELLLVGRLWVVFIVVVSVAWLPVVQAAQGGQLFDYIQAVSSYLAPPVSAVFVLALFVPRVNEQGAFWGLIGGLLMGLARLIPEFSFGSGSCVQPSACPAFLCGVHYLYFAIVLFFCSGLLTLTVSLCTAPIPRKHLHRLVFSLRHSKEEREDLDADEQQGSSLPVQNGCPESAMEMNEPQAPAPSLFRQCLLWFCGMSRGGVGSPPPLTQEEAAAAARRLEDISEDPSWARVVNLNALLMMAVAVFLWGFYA

SMILES | Selectivity IC50 (hSGLT1)/IC50 (hSGLT2)
CCOc1ccc(Cc2cc(C3OC(C)C(O)C(O)C3O)ccc2C)cc1 (stereo not shown) [drawing 313] | 24
COc1ccc(Cc2cc(C3OC(C)C(O)C(O)C3O)ccc2Cl)cc1 (stereo not shown) [drawing 311] | 26

Test system: Mice;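 further: test animals were mice weighing 18-20 g, with both sexes in equal numbers in each group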
Experiment: not given
Settings: both, mouse, in vivo, 750 mg/kg, 1 week

SMILES | Behaviors after administration with the compound to be tested
OCC1OC(c2ccc(F)c(Cc3cc4ccccc4s3)c2)C(O)C(O)C1O (stereo not shown) | 7 dead
CCOc1ccc(Cc2cc(C3SC(CO)C(O)C(O)C3O)c(OC)cc2C)cc1 (stereo not shown) | 10 dead

Same assay, conditions: single dose 750 mg/kg intragastric, 10 mice/group, observed one week

SMILES | Behaviors after administration with the compound to be tested
CCOc1ccc(Cc2cc([C@]34OC[C@](CO)(O3)[C@@H](O)[C@H](O)[C@H]4O)ccc2Cl)cc1 | 9 dead
CCOc1ccc(Cc2cc(C3OC(CO)C(O)C(O)C3O)ccc2Cl)cc1 (stereo not shown) | 8 dead
CCOc1ccc(Cc2cc(C3CC(O)C(O)C(CO)O3)ccc2Cl)cc1 (stereo not shown) | 2 dead
OCC1OC(c2ccc(F)c(Cc3cc4ccccc4s3)c2)CC(O)C1O (stereo not shown) | 3 dead
OCC1OC(c2ccc(F)c(Cc3cc4ccccc4s3)c2)C(O)CC1O (stereo not shown) | 0 dead
CC1OC(c2ccc(Cl)c(Cc3ccc(O[C@H]4CCOC4)cc3)c2)C(O)C(O)C1O (stereo partly shown) | 1 dead
CCc1ccc(Cc2c(Cl)ccc3c2COC32CC(O)CC(CO)O2)cc1 (stereo not shown) | 1 dead
CCOc1ccc(Cc2cc(C3CC(O)C(O)C(CO)S3)c(OC)cc2C)cc1 (stereo not shown) | 3 dead
CCc1ccc(Cc2c(Cl)ccc3c2COC32OC(CO)C(O)CC2O)cc1 (stereo not shown) | 5 dead
CCOc1ccc(Cc2cc(C3SC(C)C(O)C(O)C3O)c(OC)cc2C)cc1 (stereo not shown) | 4 dead
OCC1OC(c2ccc(Cl)c(Cc3ccc(O[C@H]4CCOC4)cc3)c2)C(O)C(O)C1O (stereo partly shown) | 7 dead
CCOc1ccc(Cc2cc(C3SC(CO)C(O)CC3O)c(OC)cc2C)cc1 (stereo not shown) [drawing 304] | 3 dead
CCCOc1ccc(Cc2cc(C3OC(C)C(O)C(O)C3O)ccc2Cl)cc1 (stereo not shown) | 6 dead
OCC1CC(O)C(O)C(c2ccc(Cl)c(Cc3ccc(O[C@H]4CCOC4)cc3)c2)O1 (stereo partly shown) | 2 dead
CCOc1ccc(Cc2cc([C@@]34OC[C@@](CO)(C[C@H](O)[C@H]3O)O4)ccc2Cl)cc1 | 4 dead
CCc1ccc(Cc2c(Cl)ccc3c2COC32CC(O)C(O)C(CO)O2)cc1 (stereo not shown) | 2 dead
CC1OC(c2ccc(F)c(Cc3cc4ccccc4s3)c2)CC(O)C1O (stereo not shown) | 1 dead
Cc1ccc(C2OC(CO)C(O)C(O)C2O)cc1Cc1ccc(-c2ccc(F)cc2)s1 (stereo not shown) | 9 dead
OCC1CC(O)C(O)C(c2ccc(F)c(Cc3cc4ccccc4s3)c2)O1 (stereo not shown) | 1 dead
CCOc1ccc(Cc2cc([C@]34C[C@@H](O)[C@H](O)[C@](CO)(CO3)O4)ccc2Cl)cc1 | 2 dead
OCC1OC(c2ccc(Cl)c(Cc3ccc(O[C@H]4CCOC4)cc3)c2)C(O)CC1O (stereo partly shown) | 0 dead

SMILES | Behaviors after administration with the compound to be tested
COc1ccc(Cc2cc(C3OC(C)C(O)C(O)C3O)ccc2Cl)cc1 (stereo not shown) [drawing 281] | 7 dead
CCOc1ccc(Cc2cc(C3SC(CO)C(O)CC3O)c(OC)cc2C)cc1 (stereo not shown) [drawing 303] | 0 dead
Cc1ccc(C2OC(CO)C(O)CC2O)cc1Cc1ccc(-c2ccc(F)cc2)s1 (stereo not shown) | 3 dead
CCOc1ccc(Cc2cc(C3OC(CO)C(O)CC3O)ccc2Cl)cc1 (stereo not shown) | 3 dead
CCOc1ccc(Cc2cc([C@]34OC[C@](CO)(O3)[C@@H](O)C[C@H]4O)ccc2Cl)cc1 | 3 dead
CC1OC(c2ccc(F)c(Cc3cc4ccccc4s3)c2)C(O)C(O)C1O (stereo not shown) | 2 dead
CCc1ccc(Cc2c(Cl)ccc3c2COC32OC(CO)C(O)C(O)C2O)cc1 (stereo not shown) [drawing 269] | 7 dead
OCC1OC(c2ccc(Cl)c(Cc3ccc(O[C@H]4CCOC4)cc3)c2)CC(O)C1O (stereo partly shown) | 2 dead
CCOc1ccc(Cc2cc(C3SC(CO)CC(O)C3O)c(OC)cc2C)cc1 (stereo not shown) | 1 dead
CCOc1ccc(Cc2cc(C3CCC(O)C(CO)S3)c(OC)cc2C)cc1 (stereo not shown) [drawing 310] | 0 dead
Cc1ccc(C2CC(O)C(O)C(CO)O2)cc1Cc1ccc(-c2ccc(F)cc2)s1 (stereo not shown) | 5 dead
Cc1ccc(C2OC(C)C(O)CC2O)cc1Cc1ccc(-c2ccc(F)cc2)s1 (stereo not shown) | 0 dead
CCOc1ccc(Cc2cc(C3OC(C)CC(O)C3O)ccc2Cl)cc1 (stereo not shown) | 1 dead
Cc1ccc(C2OC(C)C(O)C(O)C2O)cc1Cc1ccc(-c2ccc(F)cc2)s1 (stereo not shown) | 4 dead
OCC1CCC(O)C(c2ccc(Cl)c(Cc3ccc(O[C@H]4CCOC4)cc3)c2)O1 (stereo partly shown) | 2 dead
CCOc1ccc(Cc2cc([C@]34OC[C@](C)(O3)[C@@H](O)[C@H](O)[C@H]4O)ccc2Cl)cc1 | 3 dead
CCc1ccc(Cc2c(Cl)ccc3c2COC32OC(CO)CC(O)C2O)cc1 (stereo not shown) | 5 dead
CCOc1ccc(Cc2cc(C3OC(C)C(O)C(O)C3O)ccc2Cl)cc1 (stereo not shown) [drawing 282] | 1 dead
CCc1ccc(Cc2c(Cl)ccc3c2COC32OC(C)C(O)C(O)C2O)cc1 (stereo not shown) | 3 dead
Cc1ccc(C2OC(CO)CC(O)C2O)cc1Cc1ccc(-c2ccc(F)cc2)s1 (stereo not shown) | 3 dead
CCOc1ccc(Cc2cc(C3OC(CO)CC(O)C3O)ccc2Cl)cc1 (stereo not shown) [drawing 272] | 2 dead
